According to the NIST ThermoML archive (doi:10.1016/j.jct.2015.03.001):

Experiments:
[1] = refractive index (Na D-line) (dimensionless); xn = mol fraction of the nth substance listed; conditions: 99 kPa, Liquid, Abbe refractometer
[2] = relative permittivity at various frequencies (dimensionless); xn = mol fraction of the nth substance listed; conditions: 99 kPa, Liquid, Frequency=2 MHz, Parallel plate capacitor

CCCCCl [1-chlorobutane] + CCCCCC
Conditions	refractive index, 283.15 K	refractive index, 298.15 K	refractive index, 313.15 K	relative permittivity, 283.15 K	relative permittivity, 298.15 K	relative permittivity, 313.15 K
[1], x2 = 0	1.4075	1.3995	1.39131	–	–	–
[1], x2 = 0.0534	1.40565	1.39762	1.38941	–	–	–
[1], x2 = 0.1022	1.404	1.39595	1.38772	–	–	–
[1], x2 = 0.2056	1.40063	1.39253	1.38428	–	–	–
[1], x2 = 0.3039	1.39755	1.38941	1.38115	–	–	–
[1], x2 = 0.3985	1.39477	1.38661	1.37832	–	–	–
[1], x2 = 0.5023	1.39187	1.38367	1.37537	–	–	–
[1], x2 = 0.6042	1.38921	1.38099	1.37267	–	–	–
[1], x2 = 0.7026	1.38679	1.37855	1.37024	–	–	–
[1], x2 = 0.8041	1.38445	1.37621	1.36788	–	–	–
[1], x2 = 0.9082	1.38227	1.37401	1.3657	–	–	–
[1], x2 = 0.9471	1.3815	1.37324	1.36493	–	–	–
[2], x2 = 0	–	–	–	7.552	7.157	6.757
[2], x2 = 0.0476	–	–	–	7.176	6.821	6.456
[2], x2 = 0.0989	–	–	–	6.775	6.461	6.13
[2], x2 = 0.1968	–	–	–	6.057	5.8	5.526
[2], x2 = 0.3016	–	–	–	5.335	5.13	4.901
[2], x2 = 0.3968	–	–	–	4.722	4.553	4.37
[2], x2 = 0.5024	–	–	–	4.101	3.968	3.824
[2], x2 = 0.6034	–	–	–	3.567	3.458	3.348
[2], x2 = 0.6982	–	–	–	3.11	3.027	2.94
[2], x2 = 0.808	–	–	–	2.63	2.567	2.506
[2], x2 = 0.9029	–	–	–	2.259	2.217	2.176
[2], x2 = 0.9447	–	–	–	2.103	2.07	2.04

CCC(C)Cl (centres undefined) [2-chlorobutane] + CCCCCC
Conditions	refractive index, 283.15 K	refractive index, 298.15 K	refractive index, 313.15 K	relative permittivity, 283.15 K	relative permittivity, 298.15 K	relative permittivity, 313.15 K
[1], x2 = 0	1.40226	1.39404	1.38562	–	–	–
[1], x2 = 0.0471	1.40083	1.3926	1.38418	–	–	–
[1], x2 = 0.0973	1.39939	1.39115	1.38274	–	–	–
[1], x2 = 0.1986	1.39658	1.38833	1.37993	–	–	–
[1], x2 = 0.293	1.39412	1.38584	1.37742	–	–	–
[1], x2 = 0.4036	1.39142	1.38315	1.3747	–	–	–
[1], x2 = 0.5099	1.38903	1.38071	1.37229	–	–	–
[1], x2 = 0.6202	1.38673	1.37842	1.37002	–	–	–
[1], x2 = 0.708	1.38508	1.37678	1.3684	–	–	–
[1], x2 = 0.8068	1.38338	1.3751	1.36674	–	–	–
[1], x2 = 0.908	1.38183	1.37356	1.36523	–	–	–
[1], x2 = 0.9555	1.38113	1.37286	1.36454	–	–	–
[2], x2 = 0	–	–	–	9.323	8.652	8.07
[2], x2 = 0.0536	–	–	–	8.752	8.128	7.593
[2], x2 = 0.0967	–	–	–	8.282	7.716	7.222
[2], x2 = 0.1993	–	–	–	7.216	6.76	6.345
[2], x2 = 0.2995	–	–	–	6.242	5.881	5.556
[2], x2 = 0.3993	–	–	–	5.389	5.093	4.827
[2], x2 = 0.4997	–	–	–	4.625	4.39	4.182
[2], x2 = 0.5974	–	–	–	3.963	3.786	3.626
[2], x2 = 0.7026	–	–	–	3.366	3.225	3.106
[2], x2 = 0.8044	–	–	–	2.811	2.72	2.642
[2], x2 = 0.9006	–	–	–	2.349	2.296	2.253
[2], x2 = 0.9472	–	–	–	2.137	2.105	2.07
